From patent US20230089506A1, “Herbicide Combinations Comprising Glufosinate and Fluthiacet-Methyl” (BASF SE, priority 2020, published 2023) come the findings set out here.

In experiment [1] the test system is Echinochloa crus-galli (ECHCG). Briefly: Greenhouse post-emergence weed control, percent injury vs untreated control. It is filed as in vivo. The following applies: 504 h. The protocol:
(§1) Glufosinate was used as a commercial SL formulation containing 280 g ai/l of glufosinate (Liberty 280 SL, BASF). While the PPO herbicide Cadet containing 109 g ai/l fluthiacet-methyl was used (Cadet, FMC) formulation. • The evaluation for plant injury or damage caused by the chemical compositions was carried out using a scale from 0-100% when compared with the untreated control plants. Here, 0 means no damage and 100 means complete destruction of the plants.
(§2) 22., E=X+Y−(X*Y/100), where • X=effect in percent using herbicide A at an application rate of a; • Y=effect in percent using herbicide B at an application rate of b; • E=expected effect (in %) of A+B at application rates a+b.
(§3) The value E corresponds to the effect (plant damage or injury) which is to be expected if the activity of the individual compounds is just additive. If the observed effect is higher than the value E calculated according to Colby, a synergistic effect is present.
(§4) Seedlings of marestail (Conyza canadiensis; ERICA) and barnyardgrass (Echinochloa crusgalli; ECHCG) were treated with postemergence applications of either glufosinate at 246 g ai/ha, fluthiacet-methyl at 0.72 g ai/ha, or the combination of glufosinate (246 g ai/ha) and fluthiacet-methyl (0.72 g ai/ha), respectively, when they were 5-10 cm in height. All glufosinate treatments contained 1% (w/v) ammonium sulfate and solo fluthiacet-methyl treatments contained 1% (w/v) ammonium sulfate plus 1% (v/v) MSO surfactant. Plants were placed in a completely randomized design with four replications per treatment. Percent injury data was collected 21 days after treatment (DAT).

In experiment [2] the test system is Conyza canadiensis (ERICA). The experiment is described as above. It is filed as in vivo. To be noted: 504 h. The protocol: as §1, §2, §3, §4
Where [3] appears, read: read-out: % activity, Solo Glufosinate (246 g ai/ha).

With `CP(=O)(O)CCC(N)C(=O)O` (racemic) [Glufosinate, (2RS)-2-amino-4-[hydroxy(methyl)phosphinoyl]butyric acid], the inhibition at 246 g/ha in experiment [1] (setting [3]) is 53%; in experiment [2] (setting [3]), 58%.

Regarding `COC(=O)CSc1cc(/N=c2\sc(=O)n3n2CCCC3)c(F)cc1Cl` [Fluthiacet-methyl, fluthiacet-methyl], the inhibition at 0.72 g/ha in experiment [1] (ECHCG seedlings 5-10 cm, postemergence, 0.72 g ai/ha, 21 DAT, 1% ammonium sulfate plus 1% MSO, scale 0-100%, read-out: % activity, Solo Fluthiacet-methyl (0.72 g ai/ha)) came out at 20%; in experiment [2] (ERICA seedlings 5-10 cm, postemergence, 0.72 g ai/ha, 21 DAT, 1% ammonium sulfate plus 1% MSO, scale 0-100%, read-out: % activity, Solo Fluthiacet-methyl (0.72 g ai/ha)), 23%.
